Tests used:
[1] = Serum mycophenolic acid levels in Ldlr−/− mice by commercial assay; type: in vivo
Experimental: (§1) Diet W will be formulated with CellCept® incorporated directly into the chow, at concentrations of 0.04%, 0.08% or 0.26% mycophenolate mofetil by weight. When administered in this way, the mice will be expected to consume 15 mg/kg/day (“low dose”), 30 mg/kg/day (“low dose”), or 100 mg/kg/day (“high-dose”) of the drug. Mice will be sacrificed 12 weeks after feeding on the study diet, and the endpoints determined.
No MPA was detected in the serum of control mice (data not shown).

[2] = tested on: rabbits; conditions: 30 mg/kg/day; cited from earlier work
[3] = cited from earlier work
[4] = tested on: male Ldlr−/− mice; assay: Atherosclerosis in Ldlr−/− (LDLRKO) mice on Western-type diet: percentage of aortic sinus occluded by plaque; type: in vivo; conditions: 12 weeks; for reduction of atherosclerosis (AS): male Ldlr−/− mice; for percentage of aortic sinus occluded by plaque: control 16%
Text: (§2) This example illustrates the effect of low-dose MMF on mice lacking the low-density lipoprotein receptor B6.129S7-Ldlrtm1Her/J (hereinafter referred to as LDLRKO mice) obtained from Jackson Labs. When placed on a high-fat, high-cholesterol “Western-type” diet, these mice develop severe atherosclerosis (Ishibashi et al., 1994, J Clin Invest. 93(5):1885-93).
as §1
The primary endpoint will be evaluated using histological analysis of plaque area at the aortic root. The total lesion area in oil red O-stained cryostat sections of the aortic root is quantified using a Leica image analysis system. Mean lesion area (as a percentage of aortic cross-sectional area) is calculated from 10 oil red O-stained sections, beginning at the appearance of the tricuspid valves.
(§3) Plaque composition is analysed as a secondary endpoint using oil red O staining (for lipid content—see above), Movat's pentachrome staining (for lesion complexity including extracellular matrix and glycosaminoglycans), and haematoxylin and eosin (for macrophage content). The average atherosclerotic area is compared between the groups using the two-way ANOVA test. Additional secondary endpoints will be plasma levels of total cholesterol, HDL cholesterol, LDL cholesterol, triglycerides, and glucose, as well as en face visualization of the thoracic and abdominal aortas stained with oil red O.
Low-dose therapy (15 mg/kg/day, a dosage equivalent to approximately 1 gram per day in a 70 kg human) reduced AS by 31% (from 16% to 11% of the sinus) whereas high-dose therapy reduced AS by 61% (from 16% to 6.2%). The response was dose-dependent. Quantification was performed by a single, trained observer blinded to treatment group.

[5] = tested on: male Ldlr−/− mice; assay: Serum lipids (triglycerides, phospholipids, HDL) in Ldlr−/− mice on Western-type diet; type: in vivo; conditions: for serum phospholipid (PPL) levels: control 1078+91 mg/dL; for serum triglyceride (Tgs) levels: control 1198+137 mg/dL
Text: as §2, §1, §3
The response was dose-dependent. Quantification was performed by a single, trained observer blinded to treatment group. Mouse groups are the same as for FIG. 1.
Importantly, levels of serum HDL-cholesterol are not lowered by MMF treatment. Quantification was performed by a single, trained observer blinded to treatment group. Mouse groups are the same as for FIG. 1.

[6] = tested on: male New Zealand White (NZW) rabbits; assay: High-cholesterol New Zealand White rabbit model of atherogenesis (Example 2); type: in vivo; conditions: 1 or 5 mg/kg by gastric gavage daily, 12 weeks
Experimental: This example illustrates the use of low dose MMF in the treatment of a rabbit model of atherogenesis.
Study Design: Studies are done in 30 male New Zealand White (NZW) rabbits weighing 1.0-1.5 kg at the beginning of the experiment. After obtaining baseline blood samples, rabbits are fed ad libitum a 1% cholesterol diet for 12 weeks. This diet is prepared by dissolving cholesterol (Sigma, St. Louis, Mo.) in 100% ethanol at a temperature of 60° C., mixing this solution with standard rabbit chow (Purina), and allowing the complete evaporation of the ethanol.
The rabbits are divided into three groups and treated as follows: (1) CHOL+MMF (extra-low) group (n=10) receives by gastric gavage 5 mg/kg of MMF in 0.4 ml of water; (2) CHOL+MMF (ultra-low) group (n=10) receives by gastric gavage 1 mg/kg of MMF in 0.4 ml of water; and (3) CHOL group (n=10) receives by the same route daily 0.4 ml of water. […] The MMF and vehicle are given daily throughout the 12 experimental weeks.
Blood samples for determination of plasma cholesterol and triglyceride are taken every 2 weeks. […]
Determination of aortic cholesterol content: Lipids are isolated from the aortic segments as described by Folch et al., 1957, J Biol Chem. […]:497-509. […] Cholesterol is determined in the lipid extract by the method of Zlatikis et al., 1953, J Lab Clin Med. 1:486-492. […]

[7] = high-dose (100 mg/kg/day) in chow

Row | Compound | average serum mycophenolic acid (MPA) level ([1]; high-dose group (MMF 100 mg/kg/day in chow)) [mg/L] | average serum mycophenolic acid (MPA) level ([1]; low-dose group (MMF 15 mg/kg/day in chow)) [mg/L] | effect on atherogenic potential of a high-cholesterol diet [2] | solubility in water [3] | reduction of atherosclerosis (AS) [4, 7] [%] | percentage of aortic sinus occluded by plaque [4, 7] [%] | reduction of atherosclerosis (AS) ([4]; low-dose 15 mg/kg/day in chow) [%] | percentage of aortic sinus occluded by plaque ([4]; low-dose 15 mg/kg/day in chow) | serum phospholipid (PPL) levels ([5]; high-dose (100 mg/kg/day)) | serum triglyceride (Tgs) levels ([5]; high-dose (100 mg/kg/day)) | serum phospholipid (PPL) levels ([5]; low-dose 15 mg/kg/day) | serum triglyceride (Tgs) levels ([5]; low-dose 15 mg/kg/day) | effect on HDL levels ([5]; male Ldlr−/− mice, same groups as FIG. 1) | size and severity of the atherosclerotic lesion (intima/media ratio, aortic cholesterol content), expected [6]
1 | COc1c(C)c2c(c(O)c1C/C=C(\C)CCC(=O)O)C(=O)OC2 [MPA, mycophenolic acid] | 3.65 ± 0.3 | 1.16 ± 0.09 | – | – | – | – | – | – | – | – | – | – | – | –
2 | COc1c(C)c2c(c(O)c1C/C=C(\C)CCC(=O)OCCN1CCOCC1)C(=O)OC2 [mycophenolate mofetil, morpholinoethyl E-6-(1,3-dihydro-4-hydroxy-6-methoxy-7-methyl-3-oxo-5-isobenzofuranyl)-4-methyl-4-hexenoate] | – | – | ameliorated the atherogenic potential of a high-cholesterol diet | insoluble in water | 61 | 6.2 | 31 | 11 % of the sinus | 696+115 mg/dL | 452+80 mg/dL | 964+87 mg/dL | 994+149 mg/dL | does not appear to affect HDL levels | significantly reduced

— patent US8957071B2, “Treatment of vascular, autoimmune and inflammatory diseases using low dosages of IMPDH inhibitors” (Aspreva Pharmaceuticals S.A., priority 2005, dated 2015)
